# Source: patent publication US4652636A, “Pentene-diphenyl-diglucoside containing compound” (priority 1982, dated 1987)
# Experiments:
# Mouse sarcoma--Ms 52 B = test: In vitro cytostatic cytotoxic effects, MS 52 B; format: cell-based; details: I 40 ng, 37° C.
# Description: (§1) "In vitro" cytostatic cytotoxic effects with Hypoxis rooperi extracts (example 2(e)(i)) and Compound I Four different cell culture types were used:
# i. Mouse sarcoma--Ms 52 B
# (§2) Procedure: Trypsinized cells were harvested into MEM and suitably diluted to supply about 2×10^5 cells per cm^3. A culture flask containing 4,5 cm^3 of culture medium was seeded with 0.5 cm^3 of the prepared cell suspension. This cell culture was then incubated at 37° C. for 24 hours before the test substances dissolved in 0.5 cm^3 of the culture medium were added.
# pregnant mouse foeti = test: Foetotoxic-teratogenic effect of (I) in pregnant mice; format: in vivo, mouse (Swiss Webster); details: for No of foeti / No of implantation sites / No of live foeti / No of malformations: 6 mice
# Description: Two groups of six fully impregnated mice (Swiss Webster offspring) were treated orally with aqueous solutions of (I) once per day (10 ml/kg) starting day 1 through to day 8 of the gestation period. On day 20 of the pregnancies the mice were lightly anaethetised with diethyl ether and the uterus exposed by caesarian section. The total number of implantation sites were counted. All foeti were removed and examined for
# (b) macroscopic gross anatomical abnormalities of limbs and head.
# Heha 229 = test: In vitro cytostatic cytotoxic effects, Heha 229; format: cell-based; details: Heha 229, I 40 ng, 37° C.
# Description: as §1, §2
# Mouse melacoma--Mel B1-6 = test: In vitro cytostatic cytotoxic effects, Mel B1-6; format: cell-based; details: Mel B1-6, I 40 ng, 37° C.
# Description: as §1
# ii. Mouse melacoma--Mel B1-6
# as §2
# [1] = Acute toxicity evaluation of (I), mouse; format: in vivo; details: in vivo, ip, mouse, intraperitoneal, dead/treated (range %)
# Description: (§3) Solutions of (I) in distilled water were prepared with the required concentration. Administered volumes were kept constant at the rate of 10 cm^3 per kg. In each case equal numbers of males and females were treated with a single dose. All animals were observed over 7 days for signs of toxic and/or pharmaco-dynamic effects.
# (§4) A necropsy was performed on all surviving animals.
# Mouse = test: Acute toxicity evaluation of (I), mouse; format: in vivo; details: for Mortality (Range %): dead/treated
# Description: as §3, §4
# [2] = test system: Human foetal foreskin fibroblasts--HFSF; test: In vitro cytostatic cytotoxic effects, HFSF (non-malignant); format: cell-based; details: I 40 ng, 37° C.
# Description: as §1
# iv. Human foetal foreskin fibroblasts--HFSF (non-malignant)
# as §2
# Rabbits = test: Acute toxicity evaluation of (I), rabbits; format: in vivo, rabbit; details: intravenous; for Mortality (Range %): dead/treated
# Description: as §3, §4
structure (smiles),measurement,setting,value
OC[C@H]1O[C@@H](Oc2ccc(C#CC/C=C/c3ccc(O[C@@H]4O[C@H](CO)[C@@H](O)[C@H](O)[C@H]4O)c(O)c3)cc2O)[C@H](O)[C@@H](O)[C@@H]1O [Compound I],Confluency,Mouse sarcoma--Ms 52 B; 24 hours,40%
same,Confluency,Mouse sarcoma--Ms 52 B; 48 hours,20%
same,Confluency,Mouse sarcoma--Ms 52 B; 72 hours,20%
same,Confluency,Mouse sarcoma--Ms 52 B; 96 hours,20%
same,No of foeti,pregnant mouse foeti; 20 mg/kg oral,52
same,No of implantation sites,pregnant mouse foeti; 20 mg/kg oral,58
same,No of live foeti,pregnant mouse foeti; 20 mg/kg oral,50
same,No of malformations,pregnant mouse foeti; 20 mg/kg oral,0
same,No of foeti,pregnant mouse foeti; 100 mg/kg oral,49
same,No of implantation sites,pregnant mouse foeti; 100 mg/kg oral,58
same,No of live foeti,pregnant mouse foeti; 100 mg/kg oral,45
same,No of malformations,pregnant mouse foeti; 100 mg/kg oral,3 (2?)
same,abnormally reduced growth rate of the foeti,pregnant mouse foeti; any of the treated groups,no indications of abnormally reduced growth rate of the foeti
same,teratogenic effects,pregnant mouse foeti; at the doses administered,unlikely
same,adverse effects in the treated mother animals,pregnant mouse foeti; treated mother animals,No adverse effects were detected
same,Confluency,Heha 229; 24 hours,50%
same,Confluency,Heha 229; 48 hours,60%
same,Confluency,Heha 229; 72 hours,50%
same,Confluency,Heha 229; 96 hours,30%
same,Confluency,Mouse melacoma--Mel B1-6; 24 hours,40%
same,Confluency,Mouse melacoma--Mel B1-6; 48 hours,30%
same,Confluency,Mouse melacoma--Mel B1-6; 72 hours,40%
same,Confluency,Mouse melacoma--Mel B1-6; 96 hours,40%
same,Confluency,Mouse melacoma--Mel B1-6; 120 hours,30%
same,mortality at 168 h,[1]; 1000 mg/kg,16.7%
same,mortality at 168 h,[1]; 2000 mg/kg,90%
same,direct toxic effects (conclusion),"Mouse; acute toxicity, single dose",low degree of direct toxic effects
same,Mortality (Range %),"Mouse; mouse, intraperitoneal, 250 mg/kg",0/10
same,Mortality (Range %),"Mouse; mouse, intraperitoneal, 500 mg/kg",0/20
same,Remarks: signs of discomfort,"Mouse; mouse, intraperitoneal, all animals, increasing with dose",discomfort
same,Mortality (Range %),"Mouse; mouse, oral, 1000 mg/kg",0/20
same,Mortality (Range %),"Mouse; mouse, oral, 2000 mg/kg",0/20
same,Mortality (Range %),"Mouse; mouse, oral, 4000 mg/kg",0/20
same,Remarks: macroscopic lesions,"Mouse; mouse, oral, 1000-4000 mg/kg, any animal",No macroscopic
same,macroscopic lesions on necropsy,Mouse; surviving animals,No macroscopic lesions were observed
same,Confluency,[2]; 24 hours,40%
same,Confluency,[2]; 48 hours,50%
same,Confluency,[2]; 72 hours,50%
same,Confluency,[2]; 96 hours,40%
same,Mortality (Range %),Rabbits; 50 mg/kg,0/2
same,Mortality (Range %),Rabbits; 100 mg/kg,0/2
same,Remarks: macroscopic lesions,Rabbits; 50 and 100 mg/kg,no macropscopic
same,Remarks: thrombophlebitis at the injection site,Rabbits; 50 and 100 mg/kg,No thrombophlebitis
same,Remarks: visible effects,Rabbits; 50 and 100 mg/kg,No visible effects
